{"source": "ChEMBL document CHEMBL5584239", "about": "“Discovery of novel quinoline scaffold selective estrogen receptor degraders (SERDs) for treatment of ER positive breast cancer with enhanced antiproliferative bioactivity through immunogenic cell death (ICD) effects” (Eur J Med Chem, 2024)", "key": {"MCF7 [1]": {"test_system": "MCF7", "assay": "Induction of endoplasmic reticulum stress effect in human MCF7 cells assessed as change in pEIF-2alpha level at 10 uM incubated for 3 to 24 hrs by Western blot analysis", "assay_type": "functional, cell-based", "details": "time 3-24 hrs"}, "[2]": {"assay": "Half life in rat at 20 mg/kg, po measured for 1 to 24 hrs by LC-MS analysis", "assay_type": "ADME, organism-based", "details": "in vivo, time 1-24 hrs"}, "MCF7 [3]": {"test_system": "MCF7", "assay": "Induction of immunogenic cell death in human MCF7 cells assessed as CRT translocation at 10 uM by fluorescence microscopy", "assay_type": "functional, cell-based"}, "MCF7 [4]": {"test_system": "MCF7", "assay": "Induction of endoplasmic reticulum stress effect in human MCF7 cells assessed as change in calnexin level at 10 uM incubated for 24 hrs by immunofluorescence based analysis", "assay_type": "functional, cell-based"}, "MCF7 [5]": {"test_system": "MCF7", "assay": "Antitumor activity against human MCF7 cells xenografted in nude mouse model at 60 mg/kg, po administered daily via gavage for 30 days in presence of ribociclib", "assay_type": "functional, organism-based", "details": "time 30.0 day"}, "[6]": {"assay": "Tmax in rat at 20 mg/kg, po measured for 1 to 24 hrs by LC-MS analysis", "assay_type": "ADME, organism-based", "details": "in vivo, time 1-24 hrs"}, "MCF7 [7]": {"test_system": "MCF7", "assay": "Induction of immunogenic cell death in human MCF7 cells assessed as CRT translocation at 10 uM by Western blot analysis", "assay_type": "functional, cell-based"}, "[8]": {"assay": "C0 in rat at 5 mg/kg, iv measured for 1 to 24 hrs by LC-MS analysis", "assay_type": "ADME, organism-based", "details": "in vivo, time 1-24 hrs"}, "[9]": {"biological_target": "T1, Estrogen receptor (Homo sapiens) (UniProt P03372)", "T1 sequence (whole entry)": "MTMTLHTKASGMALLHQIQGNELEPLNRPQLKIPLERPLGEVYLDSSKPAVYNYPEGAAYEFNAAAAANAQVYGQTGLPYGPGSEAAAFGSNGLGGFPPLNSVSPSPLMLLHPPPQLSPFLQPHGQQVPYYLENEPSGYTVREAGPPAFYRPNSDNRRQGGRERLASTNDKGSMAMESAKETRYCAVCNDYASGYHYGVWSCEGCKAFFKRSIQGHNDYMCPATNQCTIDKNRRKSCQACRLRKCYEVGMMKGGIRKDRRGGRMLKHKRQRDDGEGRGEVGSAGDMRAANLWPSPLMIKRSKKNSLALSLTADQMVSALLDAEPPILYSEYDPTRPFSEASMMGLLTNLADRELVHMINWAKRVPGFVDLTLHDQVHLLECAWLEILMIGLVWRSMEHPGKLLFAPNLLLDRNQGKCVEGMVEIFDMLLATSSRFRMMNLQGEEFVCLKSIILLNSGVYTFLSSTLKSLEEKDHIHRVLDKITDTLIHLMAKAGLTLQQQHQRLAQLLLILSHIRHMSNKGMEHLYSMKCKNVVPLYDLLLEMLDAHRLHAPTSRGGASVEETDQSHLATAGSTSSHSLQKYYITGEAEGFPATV", "assay": "Induction of estrogen receptor degradation in estradiol-stimulated human MCF7 cells assessed as decrease in GREB1 mRNA level incubated for 24 hrs by RT-qPCR analysis", "assay_type": "cell-based", "details": "dose 1-10 µM"}, "[10]": {"assay": "Toxicity in nude mouse model xenografted with human MCF7 cells assessed as body weight loss at 60 mg/kg, po administered daily via gavage for 30 days", "assay_type": "organism-based", "details": "in vivo, 720 h, time 30 day"}, "MCF7 [11]": {"test_system": "MCF7", "assay": "Induction of immunogenic cell death in human MCF7 cells assessed as CRT translocation at 10 uM by FITC staining based flow cytometry", "assay_type": "functional"}, "MCF7 [12]": {"test_system": "MCF7", "assay": "Induction of ROS production in human MCF7 cells incubated for 3 to 24 hrs by immunofluorescence analysis", "assay_type": "functional, cell-based", "details": "time 3-24 hrs"}, "MCF7 [13]": {"test_system": "MCF7", "assay": "Induction of endoplasmic reticulum stress effect in human MCF7 cells assessed as change in CHOP level at 10 uM incubated for 3 to 24 hrs by Western blot analysis", "assay_type": "functional, cell-based", "details": "time 3-24 hrs"}, "MCF7 [14]": {"test_system": "MCF7", "assay": "Antitumor activity against human MCF7 cells xenografted in nude mouse model assessed as tumor growth inhibition at 60 mg/kg, po administered daily via gavage for 30 days", "assay_type": "functional, organism-based", "details": "time 30.0 day"}, "[15]": {"assay": "AUC (0 to t) in rat at 20 mg/kg, po measured for 1 to 24 hrs by LC-MS analysis", "assay_type": "ADME, organism-based", "details": "in vivo, time 1-24 hrs"}, "[16]": {"assay": "AUC (0 to infinity) in rat at 20 mg/kg, po measured for 1 to 24 hrs by LC-MS analysis", "assay_type": "ADME, organism-based", "details": "in vivo, time 1-24 hrs"}, "[17]": {"biological_target": "T1, Estrogen receptor (Homo sapiens)", "assay": "Induction of estrogen receptor degradation in estradiol-stimulated human MCF7 cells assessed as decrease in PGR mRNA level incubated for 24 hrs by RT-qPCR analysis", "assay_type": "cell-based", "details": "dose 1-10 µM"}, "[18]": {"biological_target": "T1, Estrogen receptor (Homo sapiens)", "assay": "Induction of estrogen receptor degradation in human MCF7 cells at 10 uM by fluorescence microscopy", "assay_type": "cell-based"}, "MCF7 [19]": {"test_system": "MCF7", "assay": "Induction of endoplasmic reticulum stress effect in human MCF7 cells assessed as change in ATF4 level at 10 uM incubated for 3 to 24 hrs by Western blot analysis", "assay_type": "functional, cell-based", "details": "time 3-24 hrs"}, "MCF7 [20]": {"test_system": "MCF7", "assay": "Antitumor activity against human MCF7 cells xenografted in nude mouse model assessed as reduction in PR level at 60 mg/kg, po administered daily via gavage for 30 days in presence of ribociclib by IHC analysis", "assay_type": "functional, organism-based", "details": "time 30.0 day"}, "[21]": {"assay": "Toxicity in nude mouse model xenografted with human MCF7 cells assessed as morphological change in kidney at 60 mg/kg, po administered daily via gavage for 30 days by H and E staining based analysis", "assay_type": "organism-based", "details": "in vivo, 720 h, time 30 day"}, "[22]": {"assay": "MRT (0 to t) in rat at 20 mg/kg, po measured for 1 to 24 hrs by LC-MS analysis", "assay_type": "ADME, organism-based", "details": "in vivo, time 1-24 hrs"}, "[23]": {"assay": "MRT (0 to infinity) in rat at 5 mg/kg, iv measured for 1 to 24 hrs by LC-MS analysis", "assay_type": "ADME, organism-based", "details": "in vivo, time 1-24 hrs"}, "MCF7 [24]": {"test_system": "MCF7", "assay": "Antitumor activity against human MCF7 cells xenografted in nude mouse model assessed as reduction in Ki67 level at 60 mg/kg, po administered daily via gavage for 30 days in presence of ribociclib by IHC analysis", "assay_type": "functional, organism-based", "details": "time 30.0 day"}, "MCF7 [25]": {"test_system": "MCF7", "assay": "Antiproliferative activity against human MCF7 cells incubated for 5 days by MTT assay", "assay_type": "functional, cell-based", "details": "MCF7, 120 h"}, "MCF7 [26]": {"test_system": "MCF7", "assay": "Induction of immunogenic cell death in human MCF7 cells assessed as HSP90 exposure at 10 uM by Western blot analysis", "assay_type": "functional, cell-based"}, "MCF7 [27]": {"test_system": "MCF7", "assay": "Synergistic antiproliferative activity against human MCF7 cells at 0.1 to 10000 nM incubated for 5 days in presence of Ribociclib by MTT assay", "assay_type": "functional, cell-based", "details": "dose 0.1-10000 nM, time 5.0 day"}, "[28]": {"assay": "Toxicity in nude mouse model xenografted with human MCF7 cells assessed as morphological change in spleen at 60 mg/kg, po administered daily via gavage for 30 days by H and E staining based analysis", "assay_type": "organism-based", "details": "in vivo, 720 h, time 30 day"}, "[29]": {"assay": "Toxicity in nude mouse model xenografted with human MCF7 cells assessed as morphological change in liver at 60 mg/kg, po administered daily via gavage for 30 days by H and E staining based analysis", "assay_type": "organism-based", "details": "in vivo, 720 h, time 30 day"}, "[30]": {"assay": "Clearance in rat at 5 mg/kg, iv measured for 1 to 24 hrs by LC-MS analysis", "assay_type": "ADME, organism-based", "details": "in vivo, time 1-24 hrs"}, "MCF7 [31]": {"test_system": "MCF7", "assay": "Induction of endoplasmic reticulum stress effect in human MCF7 cells assessed as change in CHOP level at 10 uM incubated for 24 hrs by immunofluorescence based analysis", "assay_type": "functional, cell-based"}, "[32]": {"assay": "Half life in rat at 5 mg/kg, iv measured for 1 to 24 hrs by LC-MS analysis", "assay_type": "ADME, organism-based", "details": "in vivo, time 1-24 hrs"}, "[33]": {"assay": "Tmax in rat at 5 mg/kg, iv measured for 1 to 24 hrs by LC-MS analysis", "assay_type": "ADME, organism-based", "details": "in vivo, time 1-24 hrs"}, "MCF7 [34]": {"test_system": "MCF7", "assay": "Induction of endoplasmic reticulum stress effect in human MCF7 cells assessed as change in EIF-2alpha level at 10 uM incubated for 3 to 24 hrs by Western blot analysis", "assay_type": "functional, cell-based", "details": "time 3-24 hrs"}}, "note": "The source made the active and inactive calls. The calls are words filed in the database; no cut-off is given here."}
{"smiles": "CCc1ccccc1C(=O)c1cnc2cc(O)ccc2c1Oc1ccc(/C=C/C(=O)O)cc1", "values": [{"measurement": "Activity", "setting": "MCF7 [1]", "result": "Active"}, {"measurement": "half-life", "setting": "[2]", "result": 191, "unit": "min"}, {"measurement": "Activity", "setting": "MCF7 [3]", "result": "Active"}, {"measurement": "Activity", "setting": "MCF7 [4]", "result": "Active"}, {"measurement": "Activity", "setting": "MCF7 [5]", "result": "Active"}, {"measurement": "Tmax", "setting": "[6]", "result": 15, "unit": "min"}, {"measurement": "Activity", "setting": "MCF7 [7]", "result": "Active"}, {"measurement": "C0", "setting": "[8]", "result": 31300, "unit": "ng/mL"}, {"measurement": "Activity", "setting": "[9]", "result": "Dose-Dependent Effect"}, {"measurement": "Activity", "setting": "[10]", "result": "Non-Toxic"}, {"measurement": "Activity", "setting": "MCF7 [11]", "result": "Active"}, {"measurement": "Activity", "setting": "MCF7 [12]", "result": "inactive"}, {"measurement": "Activity", "setting": "MCF7 [13]", "result": "Active"}, {"measurement": "inhibition", "setting": "MCF7 [14]", "result": "Active"}, {"measurement": "AUC(0-t)", "setting": "[15]", "result": 628, "unit": "ng·h/mL"}, {"measurement": "AUC(0-inf)", "setting": "[16]", "result": 649, "unit": "ng·h/mL"}, {"measurement": "Activity", "setting": "[17]", "result": "Dose-Dependent Effect"}, {"measurement": "Activity", "setting": "[18]", "result": "Active"}, {"measurement": "Activity", "setting": "MCF7 [19]", "result": "Active"}, {"measurement": "Activity", "setting": "MCF7 [20]", "result": "Active"}, {"measurement": "Activity", "setting": "[21]", "result": "Non-Toxic"}, {"measurement": "MRT last", "setting": "[22]", "result": 131, "unit": "min"}, {"measurement": "MRT inf", "setting": "[23]", "result": 7.56, "unit": "min"}, {"measurement": "Activity", "setting": "MCF7 [24]", "result": "Active"}, {"measurement": "IC50", "setting": "MCF7 [25]", "result": 150, "unit": "nM"}, {"measurement": "Activity", "setting": "MCF7 [26]", "result": "Active"}, {"measurement": "Activity", "setting": "MCF7 [27]", "result": "Active"}, {"measurement": "Activity", "setting": "[28]", "result": "Non-Toxic"}, {"measurement": "Activity", "setting": "[29]", "result": "Non-Toxic"}, {"measurement": "clearance", "setting": "[30]", "result": 27.8, "unit": "mL/min/kg"}, {"measurement": "Activity", "setting": "MCF7 [31]", "result": "Active"}, {"measurement": "half-life", "setting": "[32]", "result": 51.8, "unit": "min"}, {"measurement": "Tmax", "setting": "[33]", "result": 4.98, "unit": "min"}, {"measurement": "Activity", "setting": "MCF7 [34]", "result": "Active"}]}
